Assay results published in patent US20120040896A1, “COMPOSITIONS, METHODS AND USES FOR MODULATION OF BRCA 1” (THE REGENTS OF THE UNIVERSITY OF COLORADO, priority 2008, published 2012).
Where a SMILES comes first, the peptide text is derived from it. The star is where a group is joined. Cbz = O=C(OCc1ccccc1)*

Assays:
Format in all cases: cell-based, human
[1] = tested on: BARD1; experiment: Immunoblot of BARD1 protein levels in breast carcinoma cells; settings: for effect of pretreatment on E2-induced accumulation of BARD1 protein: MCF7, steroid depleted, pretreatment before E2; for BARD1 protein levels under proteasome inhibition: MCF7, steroid depleted medium, 0.5, 4 or 8 hours
Experimental: (§1) MCF7 cells were obtained from the American Type Culture Collection (#HTB-22). T47D cells were provided by Baylor College of Medicine. Both lines were normally maintained at 37° C. with 5% CO2 in DMEM with 1 mM L-glutamine (Gibco) supplemented with 10% Fetalclone serum (HyClone) and 1% non-essential amino acids (Gibco). For steroid depleted conditions (denoted as CSS), cells were cultured in phenol-free DMEM with 1 mM L-glutamine and 25 mM HEPES supplemented with 10% charcoal/dextran treated fetal bovine serum (Gemini Bioproducts). 17-β-estradiol and MG132 were obtained from Sigma-Aldrich. Cycloheximide, U0126, and p38 inhibitor were obtained from Calbiochem. ICI 182780 was obtained from Tocris Biosciences. LY294002 was obtained from Cell Signaling Technology.
(§2) Whole cell lysates were prepared by washing cells twice with PBS and then scraping into ice-cold PBS. Pelleted cells were resuspended in modified RIPA buffer (50 mM Tris base, 150 mM NaCl, 2 mM EDTA, 1% Triton X-100, 0.5% Na-deoxycholate, 0.1% SDS, 50 mM NaF, 5 mM Na3VO4, plus Roche protease inhibitor tablets). Lysates were incubated for 30 minutes on ice, clarified by centrifugation, and protein concentration determined by Bradford assay (BioRad). Where indicated, lysates harvested without phosphatase inhibitors were treated with λ-phosphatase (New England Biolabs) according to manufacturer's instructions. 100 μg of total protein was loaded per lane for Tris-glycine SDS-PAGE. Samples were transferred to PVDF membrane (Millipore) for 200 volt-hours at 50 V constant at 16° C. Membranes were blocked in 5% dry non-fat milk (Carnation) dissolved in either PBS or TBS (25 mM Tris pH 8.0, 135 mM NaCl, 2.5 mM KCl). Primary antibody incubations were performed overnight at 4° C. diluted in either 0.5% dry non-fat milk/PBS-Tween-20 0.1% or in 3% BSA (Santa Cruz Biotechnology)/TBS-Tween-20 0.1%. Antibody suppliers are: BRCA1 (Ab-4 and Ab-1, Calbiochem); BARD1 (Bethyl Laboratories); Lamin A/C, phospho-(Ser/Thr) Akt Substrate, phospho-5473 Akt, and Akt (Cell Signaling Technology); Cyclin D1 (Lab Vision Corp.); Tubulin (Chemicon). Secondary antibodies were obtained from Amersham/GE Healthcare. Densitometry was performed on 600 dpi TIFF scans of Western blot films with Quantity One software (BioRad). Density values for BRCA1 and BARD1 in each sample were normalized by the value of the corresponding Lamin A/C density as a control for loading.

[2] = tested on: BRCA1; experiment: Immunoblot of BRCA1 protein levels in breast carcinoma cells; settings: for effect of pretreatment on E2-induced accumulation of BRCA1 protein: MCF7, steroid depleted, pretreatment before E2; for BRCA1 protein levels under proteasome inhibition: MCF7, steroid depleted medium, 0.5, 4 or 8 hours
Experimental: as §1, §2

[3] = tested on: Akt; experiment: Immunoblot of phosphorylated Akt (pS473), Akt activation; settings: MCF7, steroid depleted medium, after treatment
Experimental: as §1
Whole cell lysates were prepared by washing cells twice with PBS and then scraping into ice-cold PBS. Pelleted cells were resuspended in modified RIPA buffer (50 mM Tris base, 150 mM NaCl, 2 mM EDTA, 1% Triton X-100, 0.5% Na-deoxycholate, 0.1% SDS, 50 mM NaF, 5 mM Na3VO4, plus Roche protease inhibitor tablets). Lysates were incubated for 30 minutes on ice, clarified by centrifugation, and protein concentration determined by Bradford assay (BioRad). […] Densitometry was performed on 600 dpi TIFF scans of Western blot films with Quantity One software (BioRad). […]

Structure (SMILES) | effect of pretreatment on E2-induced accumulation of BARD1 protein [1] | effect of pretreatment on E2-induced accumulation of BRCA1 protein [2] | Akt activation (phosphorylated Akt pS473) [3] | BARD1 protein levels under proteasome inhibition [1] | BRCA1 protein levels under proteasome inhibition [2]
C[C@]12CC[C@@H]3c4ccc(O)cc4C[C@@H](CCCCCCCCC[S+]([O-])CCCC(F)(F)C(F)(F)F)[C@H]3[C@@H]1CC[C@@H]2O (some centres unmarked) [ICI 182780] | abolished | abolished | – | – | –
N#CC(=C(/N)Sc1ccccc1N)/C(C#N)=C(/N)Sc1ccccc1N [MEK 1/2] | – | no effect | – | – | –
CC(C)C[C@@H](C=O)NC(=O)[C@H](CC(C)C)NC(=O)[C@H](CC(C)C)NC(=O)OCc1ccccc1 [MG132] (Cbz-Leu-Leu-Leu-aldehyde) | – | – | dramatic activation | accumulation | accumulation
CC(C)C[C@H](NC(=O)[C@H](Cc1ccccc1)NC(=O)c1cnccn1)B(O)O [bortezomib] | – | – | only minor activation | rapidly increased | rapidly increased
C[C@@H]1C[C@@H]([C@H](O)CC2CC(=O)NC(=O)C2)C(=O)[C@@H](C)C1 [cycloheximide, Cycloheximide] | did not prevent | did not prevent | – | – | –
